From patent US20260159536A1, “AKR1C3-ACTIVATED DNA ALKYLATING AGENT, AND MEDICAL APPLICATION THEREOF” (ASCENTAWITS PHARMACEUTICALS, LTD., priority 2021, published 2026)
Read-outs that look alike come from different tables or passages of the source.

Legend:
[1] = system: HuPrime model LI6643 human liver cancer; experiment: In vivo pharmacodynamics, liver cancer LI6643 PDX model (Compound A, Sorafenib, AST-3424; section 4.7); parameters: species or system BALB/c nude mice; conditions: for Tumor volume (x ± S): in mm³
Description: Experiment Instruction: BALB/c nude mice were subcutaneously inoculated with HuPrime® model LI6643 tumor blocks to establish a subcutaneous grafted tumor model of human liver cancer. […] The efficacy was evaluated according to the relative tumor inhibition rate TGI (%), and the safety was evaluated according to the change in body weight and the death of the animals.

NCI-H522 = experiment: AKR1C3-dependent cytotoxicity, NSCLC cell line NCI-H522; assay type: cell-based; conditions: Homo sapiens
Description: (§1) The tested compound was then added. The compound was dissolved in 100% DMSO at 200 times of the desired final test concentration. When the medicament was added, the compound was further diluted to 4 times of the desired final test concentration by using the complete medium. 50 μL of aliquots of the compound with specific concentration were added to the microwells containing 150 μL of medium, and then the final medicament concentration was obtained. […] The medicament was then washed. […] After the incubation was finished, the Alamar Blue was used to analyze and quantify the living cells.

[2] = Liver microsome stability, human; assay type: in vitro ADME; conditions: Human liver microsomes; with the addition of NADPH
Description: (§2) 1) Two individual experiments were performed.
(§3) All experiments were performed in duplicate.

H460 cancer cells = experiment: H460 proliferation in the presence or absence of AKR1C3 inhibitor AST-3021 (Alamar Blue); assay type: cell-based, human; conditions: for IC50: Homo sapiens, NCI-H460, H460, 2 hours exposure
Description: as §1

NCI-H2110 = experiment: AKR1C3-dependent cytotoxicity, NSCLC cell line NCI-H2110; assay type: cell-based
Description: as §1

[3] = system: HuPrime model GA6201 human gastric cancer; conditions: for Tumor volume: AST-3424 5 mg/kg i.v.
Description: The test was divided into groups of the test drug Isocyclophosphamide 60 mg/kg group, the test drug AST-3424 5 mg/kg group, the test drug A compound 2.5 mg/kg and 5 mg/kg groups, and normal saline (pH 7.0-7.6) vehicle control group, a total of 5 groups, with 5 mice per group.
In the above dosing regimen, Isocyclophosphamide was designed based on the best dosing regimen with maximum safe dosage as recited in the document (Jessica D. Sun, Qian Liu, Dharmendra Ahluwalia, Damien J. Ferraro, Yan Wang, Don Jung, Mark D. Matteucci, and Charles P. Hart. Comparison of hypoxia-activated prodrug evofosfamide (TH-302) and ifosfamide in preclinical non-small cell lung cancer models [J]. Cancer Biology & Therapy, 2016, 17(4): 371-380).

[4] = Liver microsome stability, rat; assay type: in vitro ADME; conditions: Rat liver microsomes; with the addition of NADPH
Description: as §2, §3

NCIH1755 = experiment: AKR1C3-dependent cytotoxicity, NSCLC cell line NCIH1755; assay type: cell-based; conditions: Homo sapiens, NCI-H1755
Description: as §1

NCI-H1563 = experiment: AKR1C3-dependent cytotoxicity, NSCLC cell line NCI-H1563; assay type: cell-based; conditions: Homo sapiens
Description: as §1

NCI-H23 = experiment: AKR1C3-dependent cytotoxicity, NSCLC cell line NCI-H23; assay type: cell-based; conditions: Homo sapiens
Description: as §1

H460 cells = experiment: Inhibition of H460 cancer cell proliferation (CTG, 72 h); assay type: cell-based; conditions: Homo sapiens, NCI-H460
Description: If not otherwise specified, IC50 values were measured by the following experimental methods:
c) The cell suspension was added to 96-well plate with 100 μL per well and 2000 cells/well of cell density.
a) Cells were plated for 24 hours, and then the compounds acted singly. 99 μL of growth medium was supplemented per well, and then 1 μL of 200× compound was added, gently shaken to ensure uniform mixing, and then placed in a 37° C., 5% CO2 incubator.
b) The cell plate was placed in the incubator for 72 hours.
b) 100 μL of CTG reagent (CelltiterGlo kit) was added to each well, the plate was placed in a rapid oscillator and shaken for 2 minutes, and then placed at room temperature for 30 minutes away from light.
c) The chemiluminescence signal value was read with Envision instrument.
The IC50 was calculated using GraphPad Prism 8 software and the IC50 (half inhibitory concentration) of the compounds was obtained using the following non-linear fitting formula: […]

[5] = Liver microsome stability, mouse; assay type: in vitro ADME; conditions: Mouse liver microsomes; with the addition of NADPH
Description: as §2, §3

[6] = Liver microsome stability, monkey; assay type: in vitro ADME; conditions: Monkey liver microsomes; with the addition of NADPH
Description: as §2, §3

[7] = 0.3 mg/kg i.v. QDx5, 2 days off, 2 weeks off, QDx5, Day 21
[8] = 1.25 mg/kg i.v. QWx2, 1 week off, QWx2, Day 21
[9] = AST-3424 1 mg/kg i.v. QDx5, 2 days off, 2 weeks off, QDx5, Day 21
[10] = AST-3424 5 mg/kg i.v. QWx2, Day 38

C[C@@H](OP(=O)(N1CC1)N1CC1)c1ccc([N+](=O)[O-])c(Oc2cccc(C(=O)N(C)C)c2)c1 [AST-3424]
Relative tumor volume (x ± S) [1, 7]: 1.92 ± 0.2
T/C (%) [1, 7]: 39.84%
TGI (%) [1, 7]: 60.16%
Tumor volume (x ± S) [1, 7]: 250.47 ± 44.00
Tumor volume ([1]; 0.3 mg/kg i.v., Day 0): 124.74 mm^3
Tumor volume ([1]; 0.3 mg/kg i.v., Day 3): 210.50 mm^3
Tumor volume ([1]; 0.3 mg/kg i.v., Day 7): 242.31 mm^3
Tumor volume ([1]; 0.3 mg/kg i.v., Day 10): 227.43 mm^3
Tumor volume ([1]; 0.3 mg/kg i.v., Day 14): 208.00 mm^3
Tumor volume ([1]; 0.3 mg/kg i.v., Day 17): 223.43 mm^3
Tumor volume ([1]; 0.3 mg/kg i.v., Day 21): 250.47 mm^3
Tumor volume ([1]; 0.3 mg/kg i.v., Day 24): 302.15 mm^3
Tumor volume ([1]; 0.3 mg/kg i.v., Day 28): 386.93 mm^3
Relative tumor volume (x ± S) [1, 8]: 1.36 ± 0.22
T/C (%) [1, 8]: 28.14%
TGI (%) [1, 8]: 71.86%
Tumor volume (x ± S) [1, 8]: 169.64 ± 41.89
Tumor volume ([1]; 1.25 mg/kg i.v., Day 0): 124.62 mm^3
Tumor volume ([1]; 1.25 mg/kg i.v., Day 3): 205.56 mm^3
Tumor volume ([1]; 1.25 mg/kg i.v., Day 7): 217.23 mm^3
Tumor volume ([1]; 1.25 mg/kg i.v., Day 10): 216.04 mm^3
Tumor volume ([1]; 1.25 mg/kg i.v., Day 14): 187.94 mm^3
Tumor volume ([1]; 1.25 mg/kg i.v., Day 17): 176.52 mm^3
Tumor volume ([1]; 1.25 mg/kg i.v., Day 21): 169.64 mm^3
Tumor volume ([1]; 1.25 mg/kg i.v., Day 24): 174.54 mm^3
Tumor volume ([1]; 1.25 mg/kg i.v., Day 28): 146.31 mm^3
Relative tumor volume (x ± S) [1, 9]: 0.66 ± 0.22
T/C (%) [1, 9]: 13.68%
TGI (%) [1, 9]: 86.32%
Tumor volume (x ± S) [1, 9]: 75.89 ± 21.82
Tumor volume ([1]; AST-3424 1 mg/kg i.v., Day 0): 124.32 mm^3
Tumor volume ([1]; AST-3424 1 mg/kg i.v., Day 3): 156.70 mm^3
Tumor volume ([1]; AST-3424 1 mg/kg i.v., Day 7): 144.82 mm^3
Tumor volume ([1]; AST-3424 1 mg/kg i.v., Day 10): 110.44 mm^3
Tumor volume ([1]; AST-3424 1 mg/kg i.v., Day 14): 90.12 mm^3
Tumor volume ([1]; AST-3424 1 mg/kg i.v., Day 17): 97.62 mm^3
Tumor volume ([1]; AST-3424 1 mg/kg i.v., Day 21): 75.89 mm^3
Tumor volume ([1]; AST-3424 1 mg/kg i.v., Day 24): 89.34 mm^3
Tumor volume ([1]; AST-3424 1 mg/kg i.v., Day 28): 98.43 mm^3
IC50 (NCI-H522): > 1000 nM
Percentage remaining after 30 minutes [2]: 10.65%
IC50 (H460 cancer cells; AST-3021 3 micromolar, read-out: IC50 With the addition of AST-3021): 44.9 nM
IC50 (H460 cancer cells; no AKR1C3 inhibitor, read-out: IC50 Without the addition of AST-3021): 0.349 nM
Fold (H460 cancer cells; IC50 with AST-3021 over IC50 without): 128.71
IC50 (NCI-H2110): 1.1 nM
Relative tumor volume (x ± S) [3, 10]: 0.11 ± 0.07
T/C (%) [3, 10]: 1.21%
TGI (%) [3, 10]: 98.79%
Tumor volume (x ± S) [3, 10]: 12.65 ± 7.91
Tumor volume ([3]; 0 day): 94.19 mm^3
Tumor volume ([3]; 3 days): 114.98 mm^3
Tumor volume ([3]; 7 days): 84.33 mm^3
Tumor volume ([3]; 10 days): 77.04 mm^3
Tumor volume ([3]; 14 days): 63.59 mm^3
Tumor volume ([3]; 17 days): 52.08 mm^3
Tumor volume ([3]; 21 days): 45.81 mm^3
Tumor volume ([3]; 24 days): 40.55 mm^3
Tumor volume ([3]; 28 days): 30.28 mm^3
Tumor volume ([3]; 31 days): 23.24 mm^3
Tumor volume ([3]; 35 days): 18.55 mm^3
Tumor volume ([3]; 38 days): 12.65 mm^3
Tumor volume ([3]; 42 days): 13.42 mm^3
Tumor volume ([3]; 45 days): 10.82 mm^3
Tumor volume ([3]; 49 days): 8.15 mm^3
body weight change / toxic effects ([3]; GA6201 model, tested doses): no toxic effects
Percentage remaining after 30 minutes [4]: 8.79%
IC50 (NCIH1755): 8.2 nM
IC50 (NCI-H1563): 2.5 nM
IC50 (NCI-H23): > 1000 nM
IC50 (H460 cells): 0.11 nM
Percentage remaining after 30 minutes [5]: 3.1%
Percentage remaining after 30 minutes [6]: 0.03%
